Test results taken from patent publication US10294202B2, “Pyrrolidinones as herbicides” (FMC Corporation, priority 2013, dated 2019).

Assays:
barnyardgrass [1] = experiment: Test A pre-/postemergence herbicide test; assay type: in vivo, Echinochloa crus-galli
Summary of the method: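 Planted in loam–sand blend; treated the same day preemergence by directed soil spray, while separately grown plants at one- to two-leaf stage got postemergence spray. Compared visually with untreated controls after approximately 10 days; 100 means complete control.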

sedge, umbrella = experiment: Test B flooded paddy test; assay type: in vivo, Cyperus difformis; details: 500 g ai/ha, Flood; scale of 0 to 100 where 0 is no effect and 100 is complete control
Summary of the method: (§1)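 Plants grown to 2-leaf stage; pots flooded 3 cm above soil and compound applied directly into paddy water, depth held throughout. Visual rating against untreated controls after 13 to 15 days in greenhouse, 0 (no effect) to 100 (complete control).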

barnyardgrass [2] = experiment: Test B flooded paddy test; assay type: in vivo, Echinochloa crus-galli; details: 500 g ai/ha, Flood; scale of 0 to 100 where 0 is no effect and 100 is complete control
Summary of the method: as §1

blackgrass = experiment: Test C pre-/postemergence herbicide test; assay type: in vivo, Alopecurus myosuroides
Summary of the method: (§2)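 Test compounds, formulated in a surfactant-containing non-phytotoxic solvent blend, are applied to seeded loam/sand soil (preemergence) and to young plants at the 1- to 4-leaf stage in peat-based medium (postemergence). Plants stay 13 to 15 days under greenhouse conditions, then are scored visually relative to controls, 0 = no effect, 100 = complete control.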

wheat (winter wheat) = experiment: Test C pre-/postemergence herbicide test; assay type: in vivo, Triticum aestivum
Summary of the method: as §2

corn = experiment: Test C pre-/postemergence herbicide test; assay type: in vivo, Zea mays
Summary of the method: as §2

crabgrass, large = experiment: Test C pre-/postemergence herbicide test; assay type: in vivo, Digitaria sanguinalis
Summary of the method: as §2

lambsquarters = experiment: Test C pre-/postemergence herbicide test; assay type: in vivo, Chenopodium album
Summary of the method: as §2

soybean = experiment: Test C pre-/postemergence herbicide test; assay type: in vivo, Glycine max
Summary of the method: as §2

oat, wild = experiment: Test C pre-/postemergence herbicide test; assay type: in vivo, Avena fatua; details: Postemergence
Summary of the method: as §2

velvetleaf = experiment: Test C pre-/postemergence herbicide test; assay type: in vivo, Abutilon theophrasti
Summary of the method: as §2

[3] = Postemergence, 31 g ai/ha, scale 0 to 100 (0 no effect, 100 complete control)
[4] = Postemergence, 62 g ai/ha, scale 0 (no effect) to 100 (complete control)
[5] = Postemergence, 125 g ai/ha, scale 0 to 100 (0 no effect, 100 complete control)
[6] = Postemergence, 250 g ai/ha, scale 0 to 100 (0 no effect, 100 complete control)
[7] = Preemergence, 31 g ai/ha, scale 0 to 100, 0 is no effect and 100 is complete control
[8] = Preemergence, 62 g ai/ha, scale 0 to 100 (0 no effect, 100 complete control)
[9] = Preemergence, 125 g ai/ha, scale 0 to 100

O=C1NCC(c2cccc(OC(F)F)c2)C1C(=O)Nc1ccccc1F (stereo not drawn) [Compound 323]
75: Plant response rating (scale of 0 to 100), Corn (corn; Preemergence, 250 g ai/ha) | Plant response rating, Lambsquarters (lambsquarters; [9])
15: Plant response rating, Blackgrass (blackgrass; [6]) | Velvetleaf plant response rating (velvetleaf; [8])
95: Crabgrass, Large plant response rating (crabgrass, large; [7]) | Plant response rating (scale of 0 to 100), Lambsquarters (lambsquarters; Preemergence, 250 g ai/ha)
50: Lambsquarters plant response rating (lambsquarters; [8])
45: Plant response rating, Blackgrass (blackgrass; [9])
70: Plant response rating, Crabgrass, Large (crabgrass, large; [5])
85: Plant response rating (scale of 0 to 100), Blackgrass (blackgrass; Preemergence, 250 g ai/ha)
20: Plant response rating, Velvetleaf (velvetleaf; [4])
90: Plant response rating, Barnyardgrass (barnyardgrass [1]; Postemergence, 125 g ai/ha, visual rating on 0 to 100 scale (0 no effect, 100 complete control), approx. 10 days) | Plant response rating, Barnyardgrass (barnyardgrass [1]; Postemergence, 500 g ai/ha, 0 to 100 scale (0 no effect, 100 complete control)) | Plant response rating, Barnyardgrass (barnyardgrass [1]; Preemergence, 125 g ai/ha, 0 to 100 scale where 0 is no effect and 100 is complete control) | Barnyardgrass plant response rating (barnyardgrass [1]; Preemergence, 500 g ai/ha, visual rating on 0 to 100 scale (0 no effect, 100 complete control))
30: Wheat plant response rating (wheat (winter wheat); [8])
10: Plant response rating, Corn (corn; [6]) | Plant response rating, Corn (corn; [9]) | Plant response rating, Lambsquarters (lambsquarters; [3]) | Plant response rating, Lambsquarters (lambsquarters; [4])
98: Crabgrass, Large plant response rating (crabgrass, large; [8]) | Plant response rating, Crabgrass, Large (crabgrass, large; [9])
5: Plant response rating, Corn (corn; [5])
65: Plant response rating, Lambsquarters (lambsquarters; [5]) | Plant response rating, Lambsquarters (lambsquarters; [6])
0: Plant response rating, Sedge, Umbrella (sedge, umbrella) | Plant response rating, Blackgrass (blackgrass; [3]) | Plant response rating, Blackgrass (blackgrass; [4]) | Plant response rating, Blackgrass (blackgrass; [5]) | Blackgrass plant response rating (blackgrass; [7]) | Blackgrass plant response rating (blackgrass; [8]) | Plant response rating, Wheat (wheat (winter wheat); [3]) | Plant response rating, Wheat (wheat (winter wheat); [4]) | Plant response rating, Wheat (wheat (winter wheat); [5]) | Plant response rating, Wheat (wheat (winter wheat); [6]) | Plant response rating, Corn (corn; [3]) | Plant response rating, Corn (corn; [4]) | Corn plant response rating (corn; [7]) | Corn plant response rating (corn; [8]) | Plant response rating, Crabgrass, Large (crabgrass, large; [3]) | Plant response rating, Soybean (soybean; [3]) | Plant response rating, Soybean (soybean; [4]) | Plant response rating, Soybean (soybean; [5]) | Plant response rating, Soybean (soybean; [6]) | Soybean plant response rating (soybean; [8]) | Plant response rating, Soybean (soybean; [9]) | Plant response rating, Oat, Wild (oat, wild; 31 g ai/ha, scale 0 to 100 (0 no effect, 100 complete control)) | Plant response rating, Oat, Wild (oat, wild; 62 g ai/ha, scale 0 (no effect) to 100 (complete control)) | Plant response rating, Oat, Wild (oat, wild; 125 g ai/ha, scale 0 to 100 (0 no effect, 100 complete control)) | Plant response rating, Oat, Wild (oat, wild; 250 g ai/ha, scale 0 to 100 (0 no effect, 100 complete control)) | Plant response rating, Velvetleaf (velvetleaf; [3]) | Plant response rating, Velvetleaf (velvetleaf; [5]) | Plant response rating, Velvetleaf (velvetleaf; [6])
40: Plant response rating, Wheat (wheat (winter wheat); [9]) | Plant response rating, Crabgrass, Large (crabgrass, large; [4]) | Lambsquarters plant response rating (lambsquarters; [7]) | Plant response rating, Velvetleaf (velvetleaf; [9])
100: Plant response rating (scale of 0 to 100), Crabgrass, Large (crabgrass, large; Preemergence, 250 g ai/ha)
80: Plant response rating, Barnyardgrass (barnyardgrass [2]) | Plant response rating, Crabgrass, Large (crabgrass, large; [6])
